Source: patent EP0680339B1, “ECTOPARASITICIDAL FORMULATION” (priority 1993, dated 1994)

Assays:
[1] = test system: sheep body louse D. ovis; experiment: Example 3, varying concentration of active: lice counts on sheep; format: in vivo, Damalinia ovis
Protocol: Testing for ectoparasite infestation was carried out by counting the number of parasites present in 20 partings taken on each side of the sheep (40 partings in total).
In order to determine the minimum effective concentration of active agent possible upon application of 150 mL/50 kg sheep, the following formulations were prepared: […]
For each of Examples 3A-E, the treatments were applied immediately after shearing along the backline in 4-6 strips (depending on the volume to be applied. Details are as follows:
Treatments were applied using the NZ Protector dial-a-dose drench/pour-on gun.
Once treated, each group was penned separately in electrified paddocks where they were kept for the duration of the trial.
Lice counts were performed pre-shearing 7, 14, 21, 28, 35 and 42 days after treatment using the 20 partings per side technique.
Percentage reduction in lice counts was calculated using the change in lice counts for the control group as a correction factor, using the formula given in example 1.

[2] = Example 6, degree of translocation: diazinon levels in wool and skin scrapings; format: in vivo, sheep; details: for DIAZINON (PPM) - WHOLE WOLL BELLY-LINE MEAN / DIAZINON (PPM) - WHOLE WOLL MIDLINE MEAN: Example 6 formulation, 3mL per kg
Protocol: A 3 year old merino was shorn, weighed and treated immediately with the diazinon spray-on. It had not received any insecticide treatment for 12 months. The sheep weighed 37 kg and was treated with 110mL of the product. A wide band was applied from high on the neck, behind the ears, to the butt of the tail at a dosage rate of 3mL per kg bodyweight.
The animal was hand restrained during treatment and placed under cover in a pen with mesh floor and sides for the duration of the trial.
During and after treatment, the sheep had no contact with other treated animals and was not exposed to any rain.
On advice from the State Chemistry Laboratory, Department of Agriculture, Victoria, approximately 2cm square scrapings of wool and skin were taken as follows:
The values (PPM diazinon) are reported on a whole wool basis.
The approximate concentration in wool grease can be calculated on the basis of the average wool grease content of the wool is 18.4% w/w ie., multiply the individual results by a factor of 5.4.

In the case of `CCOP(=S)(OCC)Oc1cc(C)nc(C(C)C)n1` [Diazinon], the “eradication of the sheep body louse D. ovis” value ([1]; 10 mg/kg (0.33% w/w)) is reported as “failed to eradicate”, the “eradication of the sheep body louse D. ovis” value ([1]; 15 mg/kg (0.5% w/w)) is reported as “failed to eradicate” and the “DIAZINON (PPM) - WHOLE WOLL (MEAN VALUES) BELLY-LINE LEFT” value ([2]; 1 day post treatment) is reported as 407 PPM. For the same molecule, the “DIAZINON (PPM) - WHOLE WOLL (MEAN VALUES) BELLY-LINE RIGHT” value ([2]; 1 day post treatment) was 190 PPM, the “DIAZINON (PPM) - WHOLE WOLL (MEAN VALUES) MIDLINE LEFT” value (“DIAZINON … (MEAN VALUES) MIDLINE LEFT” for short) ([2]; 1 day post treatment) was 808 PPM and the “DIAZINON (PPM) - WHOLE WOLL (MEAN VALUES) MIDLINE RIGHT” value (“DIAZINON … (MEAN VALUES) MIDLINE RIGHT” below) ([2]; 1 day post treatment) was 330 PPM. For the same molecule, the “DIAZINON (PPM) - WHOLE WOLL BELLY-LINE MEAN” value ([2]; 1 day post treatment) was 298 PPM, the “DIAZINON (PPM) - WHOLE WOLL MIDLINE MEAN” value ([2]; 1 day post treatment) was 569 PPM and the “DIAZINON (PPM) - WHOLE WOLL (MEAN VALUES) BELLY-LINE LEFT” value ([2]; 3 days post treatment) was 185 PPM. The “DIAZINON (PPM) - WHOLE WOLL (MEAN VALUES) BELLY-LINE RIGHT” value ([2]; 3 days post treatment) was 112 PPM, the “DIAZINON … (MEAN VALUES) MIDLINE LEFT” value ([2]; 3 days post treatment) was 496 PPM and the “DIAZINON … (MEAN VALUES) MIDLINE RIGHT” value ([2]; 3 days post treatment) was 323 PPM. For the same molecule, the “DIAZINON (PPM) - WHOLE WOLL BELLY-LINE MEAN” value ([2]; 3 days post treatment) was 148.5 PPM, the “DIAZINON (PPM) - WHOLE WOLL MIDLINE MEAN” value ([2]; 3 days post treatment) was 410 PPM and the “DIAZINON (PPM) - WHOLE WOLL (MEAN VALUES) BELLY-LINE LEFT” value ([2]; 7 days post treatment) was 287 PPM. For the same molecule, the “DIAZINON (PPM) - WHOLE WOLL (MEAN VALUES) BELLY-LINE RIGHT” value ([2]; 7 days post treatment) was 216 PPM, the “DIAZINON … (MEAN VALUES) MIDLINE LEFT” value ([2]; 7 days post treatment) was 503 PPM and the “DIAZINON … (MEAN VALUES) MIDLINE RIGHT” value ([2]; 7 days post treatment) was 237 PPM. For the same molecule, the “DIAZINON (PPM) - WHOLE WOLL BELLY-LINE MEAN” value ([2]; 7 days post treatment) was 251.2 PPM, the “DIAZINON (PPM) - WHOLE WOLL MIDLINE MEAN” value ([2]; 7 days post treatment) was 370 PPM and the “diazinon in whole wool, belly-line right rump” value ([2]; Day 1) was 53 PPM. For the same molecule, the “diazinon in the wool grease, belly-line right rump” value ([2]; Day 1, whole wool value multiplied by 5.4) was 286 PPM.
